Results from US20130303490A1, “Inhibitors of HIV Infections and uses thereof” (Centre National De La Recherche Scientifique-CNRS, priority 2010, published 2013).
“Also recorded” adds a separate entry of the source. Read-outs that look alike come from different tables or passages of the source.

What was measured:
[1] = test system: HIV-1 strain JR-CSF (R5 strain); assay: Humanized SCID mice (hu-PBL-SCID) infected with HIV-1, viral load by qPCR; type: in vivo, mouse (SCID, grafted with human PBMCs); settings: FTY720 0.3 mg per kg per day by gavage from D-1, viral load D6, 9, 12; p=0.023 (FIG. 6)
Description: SCID mice have the cb17/Icr-Prkdc^scid/Crl genotype. These immunodepressed mice are housed in an A3/L3 animal house in cages with a filter lid, in a ventilated cage rack. After one week of acclimatization, the animals are reconstituted by intraperitoneal injection of 30×10^6 PBMCs obtained by density centrifugation of the leukocytes of an uncertified cytapheresis annulus from a healthy volunteer donor. The reconstitution is evaluated on the 13th day by assaying the human immunoglobulins (Igs) present in the serum of the mice by means of an Elisa assay using the anti-human whole Ig-PO antibody (MP Biomedical, cat n° 55230). The mice whose total Ig concentration is greater than 100 μg/ml are kept for the experiment, and are infected 14 days after the reconstitution with the HIV-1 strain JR-CSF (R5 strain) at 1000 TCID50 in 100 μl. Daily gavage with 100 μl of FTY720 (Cayman, sold by Interchim ref. BM8045) dissolved at 60 μg/ml in distilled water is begun one day before the infection and continued for 12 days. The untreated mice are given the same volume of distilled water by gavage. […] The viremies are evaluated by quantification of the viral ARN in the plasma of the mice by qPCR with the AmpliPrep/COBAS TaqMan HIV-1 test (Roche Diagnostics, ref. 05212294190). […]

[2] = test system: Ad8-luc virus in HOS CCR5 lacZ line; assay: Infection of HOS CCR5 lacZ cells (not expressing S1PR1) with Ad8-luc virus (luciferase activity); type: cell-based, HIV-1
[3] = test system: Ad8-luc virus in peripheral blood mononuclear cells (PBMCs); assay: Infection of PBMCs with Ad8-luc virus (luciferase activity); type: cell-based, HIV-1
Description: The HOS-CD4 line (AIDS Reagent Program, Rockville, Md.) and the HEK-293T line (simian virus 40 T antigen-transformed human embryonic kidney 293T, Genethon) are cultured in DMEM medium supplemented with 10% of FCS (fetal calf serum), 10 mM of glutamax-1, 100 U/ml of penicillin and 100 μg/ml of streptomycin. The HEK-293T CD4+ CCR5+ line (gift from Martine Biard-Piechaczyk, Institute of Biology, Montpellier, France) was obtained by transfection of CD4 and CCR5 genes using the HEK-293T line. The human PBMCs in culture are isolated from blood of healthy donors by density centrifugation on lymphocyte separation medium (Eurobio) and cultured in RPMI medium supplemented like the DMEM at 37° C., 5% CO2.

[4] = test system: Ad8-luc virion (nonreplicative R5-pseudotyped HIV-1) in HEK-293T CD4+ CCR5+ cells; assay: Infection of S1PR1-transfected HEK-293T CD4+ CCR5+ cells with Ad8-luc virion (luciferase activity); type: cell-based
Description: In order to test the influence of the expression of S1PR1 on infection with HIV-1, 50 000 HEK-293T CD4+ CCR5+ cells were transiently transfected by lipofection, by incubating them for 24 hours with a mixture of 50 ng of CMV-S1PR1 plasmid, 20 ng of the pRL-TK-Renilla Luciferase plasmid (Promega) and 0.5 μl of lipofectamine (Lipofectamine™ 2000, Invitrogen) in 150 μl of DMEM medium, 10% FCS, in a 96-well plate, incubated beforehand with a solution of D-polylysine for 30 min. […] 24 h after the transfection, the wells are washed with DMEM (BioWhittaker), and then the cells are infected with 40 ng of the Ad8-luc virion in 180 μl of culture medium. […] 24 h after the infection, the cells are washed once with culture medium, and put back in culture with 200 μl of DMEM, 10% FCS. 40 h to 48 h after the infection, the cells are washed once with PBS, and lysed with 50 μl of buffer, and then the Firefly and Renilla luciferase activities are measured sequentially in a luminometer using the Dual-Luciferase® Reporter Assay system (Promega, cat: E1910). The Renilla luciferase activity is used as a measure of the level of cell metabolism.

[5] = HOS CCR5 lacZ cells not expressing S1PR1, 33 μM preincubation for one hour (FIG. 3), p<0.01

Molecule: CCCCCCCCc1ccc(CCC(N)(CO)CO)cc1.Cl [FTY720, 2-amino-2-[2-(4-octylphenyl)ethyl]propane-1,3-diol]
- viremia / infection of the treated animals versus untreated group [1]: clear decrease in viremia; also recorded: significant decrease
- decrease of the HIV infection [2, 5]: approximately 50%

Molecule: FC(F)(F)c1cccc(-c2noc(-c3cc(-c4ccccc4)c(C(F)(F)F)s3)n2)c1 [SEW2871]
- decrease of the HIV infection [2, 5]: No significant difference; also recorded: does not significantly modify the infection

Molecule: CCCCCCCCCCCCC/C=C/[C@@H](O)[C@@H](N)COP(=O)(O)O [Sphingosine-1-phosphate, sphingosine-1-phosphate]
- inhibition at 1 µM ([3]; Human immunodeficiency virus 1, PBMC, read-out: inhibition of the infection): ~60%
- decrease of the HIV infection [2, 5]: approximately 50%

Molecule: CCCCCCCCc1ccc(CC[C@](N)(CO)COP(=O)(O)O)cc1 [FTY720-P]
- reduction of infection compared with the empty plasmid control ([4]; S1PR1-expressing HEK-293T CD4+ CCR5+ cells, FTY720-P 80 ng/ml for 30 min before addition of the virus, unstimulated S1PR1 alone gives 60%): 90%
- inhibition of the infection ([3]; PBMCs from a healthy donor, 1 μM preincubation, Ad8-luc for 72 h (FIG. 4)): approximately 60%
- decrease of the HIV infection [2]: approximately 50%

B1: MIP1-β: a CCR5 ligand known to inhibit HIV infection (R&D systems) (protein, UniProt P13236 24-92, looked up)
C-C motif chemokine 4: APMGSDPPTACCFSYTARKLPRNFVVDYYETSSLCSQPAVVFQTKRSKQVCADPSESWVQEYVYDLELN
- decrease in infection compared with that of FTY720-P ([4]; same conditions, anti-CCR5 antibody 10 μg/ml, MIP-1β 100 ng/ml, 30 min before infection): of the same level
